Data taken from patent US10100005B1 (Eclipse Therapeutics, LLC, priority 2017, dated 2018).

Experiments:
Format in all cases: physicochemical
[1] = Solubility testing in sodium phosphate buffer; conditions: thermodynamic from solid; aqueous buffer, 0.02 molar dibasic sodium phosphate; sonicated, undissolved solid weighed
Protocol: Compounds of Formulas I and II, prepared as described in the examples above, were tested to determine their solubility in a sodium phosphate buffer.
An aqueous buffer solution comprising 0.02 molar dibasic sodium phosphate was prepared. A weighted amount of solid was sonicated in the buffer, and then centrifuged to collect the undissolved material. The undissolved solid was dried in vacuuo and weighed. The mass of the undissolved portion was then used to calculate the mass that was successfully dissolved in the known volume of buffer.

[2] = In vitro testing: mesalamine (5-ASA) evolution from 5-glyoxyliminosalicylic acid in buffered saline, by HPLC
Protocol: The vial was held at ambient temperature for 22.75 hours and sampled. […] No other peaks were present.
Without being bound to a particular theory, it is believed that for 5-glyoxyliminosalicylic acid, the presence of chloride greatly increases the rate of mesalamine evolution.

[3] = Solution stability in aqueous sodium phosphate buffer (visual, photographs); conditions: for appearance of solution after storage: 11 mg in 5 ml 0.02 molar dibasic sodium phosphate buffer, ambient temperature, 3 days
Protocol: An aqueous buffer solution comprising 0.02 molar dibasic sodium phosphate was prepared. An 11 mg sample of 5-glyoxyliminosalicylic acid (Formula Ia-i) was added to a vial containing 5 ml of the buffer solution. […] Both vials were stored at ambient temperature.

[4] = In vitro testing: decomposition to 5-ASA in phosphate buffer (pH 6.5), by infusion MS and LCMS; conditions: 10 mg in 10 ml phosphate buffer (pH 6.5) overnight
Protocol: 10 mg of 5-ethylglyoxyliminosalicylic acid (prepared as described in Example 4 above) was stored in 10 ml phosphate buffer (pH 6.5) overnight.

Q: With `COc1cc(/C=N\c2ccc(O)c(C(=O)O)c2)ccc1O` [Formula IIa-i, 5-vanilliniminosalicylic acid] as the compound, how does the solubility [1] read?
A: Its solubility is 3.45 mg/mL.

Q: With `COc1cc(/C=N\c2ccc(C(=O)O)c(O)c2)ccc1O` [Formula IIb-i, 4-vanilliniminosalicylic acid] as the compound, how does the solubility [1] read?
A: Its solubility is 7.35 mg/mL.

Q: Which results are given for `O=C(O)/C=N\c1ccc(O)c(C(=O)O)c1` [Formula Ia-i, 5-glyoxyliminosalicylic acid]?
A: solubility [1]: 11 mg/mL; percentage of 5-aminosalicylic acid by HPLC ([2]; 12 mg compound + 12 mg 5-aminosalicylic acid in 6 ml buffered saline, ambient temperature, 22.75 hours, no other peaks): 87%; mesalamine evolution ([2]; same experiment in the absence of saline): very little mesalamine evolution; appearance of solution after storage [3]: still clear and lightly colored; storage stability relative to mesalazine ([3]; dissolved in aqueous sodium phosphate buffer, 3 days ambient): significantly greater degree of storage stability than mesalazine

Q: For `CCOC(=O)/C=N\c1ccc(O)c(C(=O)OCC)c1` [Formula Ia-ii, ethyl 5-ethylglyoxyliminosalicylate], which solubility [1] is on record?
A: The solubility was 0.13 mg/mL.

Q: For `CCOC(=O)/C=N\c1ccc(O)c(C(=O)O)c1` [Formula Ia-iii, 5-ethylglyoxyliminosalicylic acid], which solubility [1] is on record?
A: Its solubility is 12 mg/mL.

Q: And the “decomposed to 5-ASA (LCMS, single ion monitoring)” value [4]?
A: The value was ~90%.

Q: What about the “decomposition to release 5-ASA (infusion MS)” value [4] of the same compound?
A: Its value is “partially decomposed”.

Q: With `O=C(O)/C=N/c1ccc(C(=O)O)c(O)c1` [Formula Ib-i, 4-glyoxyliminosalicylic acid] as the compound, how does the solubility [1] read?
A: The solubility was 17.3 mg/mL.

Q: With `CCOC(=O)C=Nc1ccc(C(=O)O)c(O)c1` [Formula Ib-ii, 4-ethylgloxyliminosalicylic acid] as the compound, how does the solubility [1] read?
A: Its solubility is 10.2 mg/mL.

Q: With `Nc1ccc(O)c(C(=O)O)c1` [Mesalazine, 5-aminosalicylic acid, reference compound] as the compound, how does the “appearance of solution after storage” value [3] read?
A: The value was “turned a dark brown color, and a significant amount of brown solid material precipitated”.
